Test results published in ChEMBL document CHEMBL1140659, “Respiratory syncytial virus fusion inhibitors. Part 5: Optimization of benzimidazole substitution patterns towards derivatives with improved activity” (Bioorg Med Chem Lett, 2007).
pEC50: −log10 of the molar value.

Experiments:
[1] = test system: Respiratory syncytial virus; test: Antiviral activity against RSV long A with F1 protein K394R mutation in HEp2 cells; type: functional, organism-based
[2] = Cytotoxicity against human HEp2 cells; type: cell-based, HEp-2
[3] = Therapeutic index, ratio of CC50 for HEp2 to EC50 for RSV long A; settings: human, HEp2 cells; read-out: Ratio CC50/EC50

Row | SMILES | pEC50 [1] | CC50 [2] | selectivity ratio [3]
1 | CC(C)CCn1c(Cn2c(=O)n(C(C)C)c3ccccc32)nc2c(CCC#N)cccc21 | 3.63 | 2.24 µM | 0.096
2 | COCc1cccc2c1nc(Cn1c(=O)n(C(C)C)c3ccccc31)n2CCC(C)C | 5.12 | 26.7 µM | 3.56
3 | CC(C)CCn1c(Cn2c(=O)n(C(C)C)c3ccccc32)nc2c(CCCN)cccc21 | 3.67 | 2.34 µM | 0.011
4 | CC(C)CCn1c(Cn2c(=O)n(C(C)C)c3ccccc32)nc2ccc(CN(C)C)cc21 | 3.74 | 26.7 µM | 0.026
5 | CC(=O)NCc1ccc2c(c1)nc(Cn1c(=O)n(C(C)C)c3ccccc31)n2CCC(C)C | 6.20 | 178 µM | 282
6 | C=C(C)n1c(=O)n(Cc2nc3cc(C#N)ccc3n2CCC(C)C)c2ccccc21 | 7.24 | 1.48 µM | 26
7 | CC(C)CCn1c(Cn2c(=O)n(C(C)C)c3ccccc32)nc2c(CC#N)cccc21 | 3.62 | 116 µM | 0.482
8 | CC(C)CCn1c(Cn2c(=O)n(CC(=O)OC(C)(C)C)c3ccccc32)nc2cc(/C(N)=N\O)ccc21 | 7.80 | 19.8 µM | 1240
9 | CC(C)CCn1c(Cn2c(=O)n(C(C)C)c3ccccc32)nc2cc(CN)ccc21 | 8.70 | 3.92 µM | 1960
10 | CNCc1ccc2c(c1)nc(Cn1c(=O)n(C(C)C)c3ccccc31)n2CCC(C)C | 7.24 | 1.48 µM | 26
11 | CC(C)CCn1c(Cn2c(=O)n(CC(=O)O)c3ccccc32)nc2cc(C(=N)N)ccc21 | 7.51 | 173 µM | 5570
12 | CC(C)CCn1c(Cn2c(=O)n(C(C)C)c3ccccc32)nc2cc(CF)ccc21 | 7.33 | 37.3 µM | 793
13 | CC(C)CCn1c(Cn2c(=O)n(C(C)C)c3ccccc32)nc2c(CCN)cccc21 | 6.64 | 3.92 µM | 17
14 | CC(C)CCn1c(Cn2c(=O)n(CC(=O)OC(C)(C)C)c3ccccc32)nc2cc(C#N)ccc21 | 5.59 | 32.2 µM | 12.6
15 | CNCc1ccc2nc(Cn3c(=O)n(C(C)C)c4ccccc43)n(CCC(C)C)c2c1 | 3.73 | 4.81 µM | 0.026
16 | CC(C)CCn1c(Cn2c(=O)n(C(C)C)c3ccccc32)nc2cc(-c3ncon3)ccc21 | 4.67 | 223 µM | 10.3
17 | CC(C)CCn1c(Cn2c(=O)n(C(C)C)c3ccccc32)nc2cc(C(=O)O)ccc21 | 3.62 | 17.3 µM | 0.07
18 | CC(C)CCn1c(Cn2c(=O)n(C(C)C)c3ccccc32)nc2cc(CNC3CC3)ccc21 | 6.44 | 17.2 µM | 47.3
19 | CC(C)CCn1c(Cn2c(=O)n(C(C)C)c3ccccc32)nc2cc(CO)ccc21 | 7.30 | 31.6 µM | 632

Row | SMILES | pEC50 [1] | CC50 [2] | selectivity ratio [3]
20 | CC(C)CCn1c(Cn2c(=O)n(C(C)C)c3ccccc32)nc2ccc(C(N)=O)cc21 | 3.91 | 49.9 µM | 0.406
21 | CC(C)CCn1c(Cn2c(=O)n(C)c3ccccc32)nc2cc(-c3nnn(C)n3)ccc21 | 3.62 | 2.97 µM | 0.012
22 | CC(C)CCn1c(Cn2c(=O)n(C(C)C)c3ccccc32)nc2cccc(CO)c21 | 3.61 | 246 µM | 1
23 | CC(C)CCn1c(Cn2c(=O)n(CC(=O)OC(C)(C)C)c3ccccc32)nc2cc(C(=N)N)ccc21 | 8.05 | 7.9 µM | 878
24 | C=C(C)n1c(=O)n(Cc2nc3cc(/C(N)=N\O)ccc3n2CCC(C)C)c2ccccc21 | 8.30 | 3.47 µM | 694
25 | CC(=O)c1ccc2c(c1)nc(Cn1c(=O)n(C)c3ccccc31)n2CCC(C)C | 6.71 | 5.2 µM | 39.8
26 | COC(=O)c1cccc2nc(Cn3c(=O)n(C(C)C)c4ccccc43)n(CCC(C)C)c12 | 3.64 | 25.3 µM | 0.11
27 | CC(C)CCn1c(Cn2c(=O)n(C(C)C)c3ccccc32)nc2cc(Br)ccc21 | 7.74 | 18.1 µM | 1010
28 | CC(C)CCn1c(Cn2c(=O)n(C(C)C)c3ccccc32)nc2cc(N)ccc21 | 6.90 | 32.2 µM | 258
29 | CC(C)CCn1c(Cn2c(=O)n(C(C)C)c3ccccc32)nc2cc(C(N)=O)ccc21 | 6.78 | 23.4 µM | 141
30 | O=c1n(Cc2nc3ccccc3n2CCCCO)c2cnccc2n1C1CC1 | < 4.70 | – | –
31 | CCc1ccc2c(c1)nc(Cn1c(=O)n(C(C)C)c3ccccc31)n2CCC(C)C | 6.16 | 18.5 µM | 26.8
32 | CC(C)CCn1c(Cn2c(=O)n(C(C)C)c3ccccc32)nc2ccc(CCN)cc21 | 5.15 | 57 µM | 8.02
33 | CC(C)CCn1c(Cn2c(=O)n(C(C)C)c3ccccc32)nc2cc(CNS(C)(=O)=O)ccc21 | 6.14 | 30.8 µM | 42.4
34 | CC(C)CCn1c(Cn2c(=O)n(C(C)C)c3ccccc32)nc2cc(C(=O)N(C)C)ccc21 | 4.61 | 25.6 µM | 1.03
35 | C=C(C)n1c(=O)n(Cc2nc3cc(C(=N)N)ccc3n2CCC(C)C)c2ccccc21 | 8.40 | 10.8 µM | 2700
36 | CC(C)CCn1c(Cn2c(=O)n(C(C)C)c3ccccc32)nc2cc(C#N)ccc21 | 6.32 | 7.93 µM | 16.6
37 | C=C(C)n1c(=O)n(Cc2nc3cc(C(=O)O)ccc3n2CCC(C)C)c2ccccc21 | 3.58 | 30 µM | 0.11
38 | COC(=O)c1ccc2c(c1)nc(Cn1c(=O)n(C(C)C)c3ccccc31)n2CCC(C)C | 3.64 | 33.7 µM | 0.15

Row | SMILES | pEC50 [1] | CC50 [2] | selectivity ratio [3]
39 | CC(C)CCn1c(Cn2c(=O)n(C(C)C)c3ccccc32)nc2ccc(C(=O)O)cc21 | 3.62 | 125 µM | 0.525
40 | CC(C)CCn1c(Cn2c(=O)n(C(C)C)c3ccccc32)nc2ccc(C#N)cc21 | 7.36 | 10 µM | 228
41 | N=C(N)c1ccc2nc(Cc3nc4ccc(C(=N)N)cc4[nH]3)[nH]c2c1 | 4.00 | – | –
42 | CC(C)CCn1c(Cn2c(=O)n(C(C)C)c3ccccc32)nc2cc(CC#N)ccc21 | 6.93 | 13.3 µM | 114
43 | CC(C)CCn1c(Cn2c(=O)n(C(C)C)c3ccccc32)nc2cccc(CN)c21 | 3.72 | 11 µM | 0.058
44 | CC(C)CCn1c(Cn2c(=O)n(C(C)C)c3ccccc32)nc2cc(/C(N)=N\O)ccc21 | 6.95 | 9.14 µM | 82.2
45 | C=Cc1ccc2c(c1)nc(Cn1c(=O)n(C(C)C)c3ccccc31)n2CCC(C)C | 6.20 | 6.52 µM | 10.3
46 | CC(C)CCn1c(Cn2c(=O)n(C(C)C)c3ccccc32)nc2c(CN)cccc21 | 6.15 | 7 µM | 9.78
47 | CC(C)CCn1c(Cn2c(=O)n(C(C)C)c3ccccc32)nc2cccc(N=[N+]=[N-])c21 | 5.43 | 57.9 µM | 15.6
48 | CC(C)CCn1c(Cn2c(=O)n(C(C)C)c3ccccc32)nc2ccc(CN)cc21 | 7.02 | 28.1 µM | 296
49 | CC(C)CCn1c(Cn2c(=O)n(C(C)C)c3ccccc32)nc2cc(-c3nn[nH]n3)ccc21 | 3.65 | 2 µM | 0.009
50 | C=C(C)n1c(=O)n(Cc2nc3cc(C(C)=O)ccc3n2CCC(C)C)c2ccccc21 | 6.75 | 0.74 µM | 4.1
51 | COC(=O)c1cccc2c1nc(Cn1c(=O)n(C(C)C)c3ccccc31)n2CCC(C)C | 3.64 | 49.2 µM | 0.213
52 | C=C(C)n1c(=O)n(Cc2nc3ccccc3n2CCC(C)C)c2ccccc21 | 8.40 | 24.6 µM | 6160
53 | CC(C)CCn1c(Cn2c(=O)n(C(C)C)c3ccccc32)nc2cc(CN(C)C)ccc21 | 3.74 | 5.65 µM | 0.031
54 | CC(C)CCn1c(Cn2c(=O)n(C(C)C)c3ccccc32)nc2cc(C(C)(C)N)ccc21 | 6.16 | 3.27 µM | 4.71
55 | CC(C)CCn1c(Cn2c(=O)n(C(C)C)c3ccccc32)nc2cc(CCN)ccc21 | 5.36 | 11 µM | 2.54
56 | CC(C)CCn1c(Cn2c(=O)n(C(C)C)c3ccccc32)nc2c(CO)cccc21 | 6.09 | 22 µM | 26.8
57 | CC(C)CCn1c(Cn2c(=O)n(C(C)C)c3ccccc32)nc2ccc(CO)cc21 | 6.87 | 81.6 µM | 609
